Patent US9938273B2 (Plexxikon Inc., priority 2015, dated 2018)

Experiments:
[1] = molecular target: T1, BA/F3-FLT3-ITD + D835Y cells (Homo sapiens, UniProt P36888, D835Y, cells depend on it, form not given); assay: Cell proliferation assay (CellTiter-Glo), engineered BA/F3 cells; assay type: cell-based, murine; settings: BaF3 FLT3 ITD/D835Y cells, 3d-Growth; read-out: BaF3_FLT3 ITD/D835Y 3d-Growth: IC50
T1 sequence (P36888 1-993 D835Y): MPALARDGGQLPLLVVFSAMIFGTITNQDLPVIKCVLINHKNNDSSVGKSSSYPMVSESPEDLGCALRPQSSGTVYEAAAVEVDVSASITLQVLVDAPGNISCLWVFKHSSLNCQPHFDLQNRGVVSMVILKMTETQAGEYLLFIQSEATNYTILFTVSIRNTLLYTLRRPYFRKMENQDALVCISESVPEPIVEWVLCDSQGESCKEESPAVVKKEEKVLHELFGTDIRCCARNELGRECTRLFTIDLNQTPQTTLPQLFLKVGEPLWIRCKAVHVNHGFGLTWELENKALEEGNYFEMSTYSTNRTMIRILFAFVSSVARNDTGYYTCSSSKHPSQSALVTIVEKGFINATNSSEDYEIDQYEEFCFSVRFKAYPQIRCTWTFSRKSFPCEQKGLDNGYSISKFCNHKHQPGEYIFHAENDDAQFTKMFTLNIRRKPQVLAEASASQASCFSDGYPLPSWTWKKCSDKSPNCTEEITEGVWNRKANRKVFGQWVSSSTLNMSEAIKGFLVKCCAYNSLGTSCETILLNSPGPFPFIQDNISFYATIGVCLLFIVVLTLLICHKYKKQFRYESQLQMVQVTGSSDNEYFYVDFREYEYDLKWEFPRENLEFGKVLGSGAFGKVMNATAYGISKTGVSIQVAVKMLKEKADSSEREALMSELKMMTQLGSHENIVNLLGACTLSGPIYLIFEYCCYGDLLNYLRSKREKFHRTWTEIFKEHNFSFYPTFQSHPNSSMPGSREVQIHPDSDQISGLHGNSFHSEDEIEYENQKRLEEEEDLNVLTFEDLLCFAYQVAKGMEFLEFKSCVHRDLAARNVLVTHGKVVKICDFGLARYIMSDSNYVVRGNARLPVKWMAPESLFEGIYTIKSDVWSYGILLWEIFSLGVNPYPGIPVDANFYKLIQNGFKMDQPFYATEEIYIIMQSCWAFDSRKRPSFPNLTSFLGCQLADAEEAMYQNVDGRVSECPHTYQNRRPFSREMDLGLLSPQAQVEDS
Method in brief: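 Three-day growth at 37 °C, 5% CO2 under compound (1 μM top final, 1:3 dilutions, eight points, 0.2% DMSO), read as ATP luminescence by CellTiter-Glo for IC50. Cells: MOLM-14 with FLT3 ITD plus D835Y or F691L, and IL-3-deprived Ba/F3 transfected with FLT3 ITD/D835Y, 1×10^4 per well.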

c-KIT = molecular target: T2, c-KIT (Homo sapiens, UniProt P10721); assay: AlphaScreen kinase assay with recombinant enzyme, c-KIT; assay type: biochemical; settings: 100ATP, 8pt, GMean
T2 construct: purchased Millipore 14-559K
Method in brief: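 AlphaScreen, biotinylated poly(Glu4-Tyr) 30 nM final; PY20 anti-pTyr acceptor and streptavidin donor beads 10 μg/mL; IC50 final conc. 10 μM (FLT3-D835Y, FLT3-ITD) / 100 μM (c-KIT); detection incubations 20 + 60 min RT; 580 nm emission.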

T2 sequence (P10721 26-976): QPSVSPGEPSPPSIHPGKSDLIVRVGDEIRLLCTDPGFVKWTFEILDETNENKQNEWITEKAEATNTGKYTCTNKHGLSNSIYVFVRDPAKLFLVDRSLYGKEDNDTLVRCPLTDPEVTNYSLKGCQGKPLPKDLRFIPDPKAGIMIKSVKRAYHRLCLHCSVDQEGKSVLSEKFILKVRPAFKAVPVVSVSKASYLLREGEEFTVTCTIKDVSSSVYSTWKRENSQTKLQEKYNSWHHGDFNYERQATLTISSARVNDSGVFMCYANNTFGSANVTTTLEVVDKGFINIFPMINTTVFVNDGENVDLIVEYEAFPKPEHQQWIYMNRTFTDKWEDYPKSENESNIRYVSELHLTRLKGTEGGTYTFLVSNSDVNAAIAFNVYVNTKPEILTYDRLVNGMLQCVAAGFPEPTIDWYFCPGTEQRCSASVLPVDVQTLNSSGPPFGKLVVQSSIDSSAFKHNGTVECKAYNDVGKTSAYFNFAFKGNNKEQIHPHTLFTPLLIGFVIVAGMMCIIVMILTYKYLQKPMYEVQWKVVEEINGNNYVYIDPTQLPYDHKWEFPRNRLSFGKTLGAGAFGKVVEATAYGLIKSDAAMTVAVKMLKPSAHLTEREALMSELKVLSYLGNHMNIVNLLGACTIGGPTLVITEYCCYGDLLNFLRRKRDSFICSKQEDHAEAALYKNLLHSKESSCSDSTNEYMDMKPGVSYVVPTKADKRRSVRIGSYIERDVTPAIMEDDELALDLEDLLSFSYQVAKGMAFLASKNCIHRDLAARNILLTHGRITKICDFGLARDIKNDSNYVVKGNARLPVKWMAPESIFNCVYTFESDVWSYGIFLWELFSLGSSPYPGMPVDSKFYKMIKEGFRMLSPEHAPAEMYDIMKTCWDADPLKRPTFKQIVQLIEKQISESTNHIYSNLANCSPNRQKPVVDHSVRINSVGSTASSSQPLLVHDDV

With CNC1CN(C(=O)c2cccc(-c3cnc4[nH]c(-c5ccccc5)cc4c3)n2)C1 [Compound P-0052, [3-(methylamino)azetidin-1-yl]-[6-(2-phenyl-1H-pyrrolo[2,3-b]pyridin-5-yl)-2-pyridyl]methanone] the GI50 [1] was 0.0001 to 10 µM and the IC50 (c-KIT) was 0.0001 to 10 µM.
Compound NC1CCN(C(=O)c2n[nH]c3ccc(-c4cnc5[nH]c(-c6ccccc6)cc5c4)cc23)CC1 [Compound P-0012, (4-amino-1-piperidyl)-[5-(2-phenyl-1H-pyrrolo[2,3-b]pyridin-5-yl)-1H-indazol-3-yl]methanone] has a GI50 [1] of 0.0001 to 10 µM and an IC50 (c-KIT) of 0.0001 to 10 µM.
c1ccc(-c2cc3cc(-c4cccc(OC5CCNCC5)n4)cnc3[nH]2)cc1 [Compound P-0050, 2-phenyl-5-[6-(4-piperidyloxy)-2-pyridyl]-1H-pyrrolo[2,3-b]pyridine] showed a GI50 [1] of 0.0001 to 10 µM and an IC50 (c-KIT) of 0.0001 to 10 µM.
In the case of COC1CN(C(=O)c2cccc(-c3cnc4[nH]c(-c5ccccc5)cc4c3)n2)C1 [Compound P-0091, (3-methoxyazetidin-1-yl)-[6-(2-phenyl-1H-pyrrolo[2,3-b]pyridin-5-yl)-2-pyridyl]methanone], the GI50 [1] is reported as 0.0001 to 10 µM and the IC50 (c-KIT) is reported as 50 to 100 µM.
In the case of O=S(=O)(NC1CCNC1)c1cccc(-c2cnc3[nH]c(-c4ccccc4)cc3c2)n1 (centres unmarked) [Compound P-0072, 6-(2-phenyl-1H-pyrrolo[2,3-b]pyridin-5-yl)-N-pyrrolidin-3-yl-pyridine-2-sulfonamide], the GI50 [1] is reported as 0.0001 to 10 µM and the IC50 (c-KIT) is reported as 0.0001 to 10 µM.
CN1CCC(NC(=O)c2n[nH]c3ccc(-c4cnc5[nH]c(-c6ccccc6)cc5c4)cc23)CC1 [Compound P-0022, N-(1-methyl-4-piperidyl)-5-(2-phenyl-1H-pyrrolo[2,3-b]pyridin-5-yl)-1H-indazole-3-carboxamide] showed a GI50 [1] of 0.0001 to 10 µM and an IC50 (c-KIT) of 0.0001 to 10 µM.
CC(C)(C#N)NC(=O)c1cccc(-c2cnc3[nH]c(-c4cnc(C(C)(C)O)nc4)cc3c2)n1 [Compound P-0211, N-(1-cyano-1-methyl-ethyl)-6-[2-[2-(1-hydroxy-1-methyl-ethyl)pyrimidin-5-yl]-1H-pyrrolo[2,3-b]pyridin-5-yl]pyridine-2-carboxamide] showed an IC50 (c-KIT) of 50 to 100 µM.
CC1(C#N)CCN(C(=O)c2cccc(-c3cnc4[nH]c(-c5ccccc5)cc4c3)n2)CC1 [Compound P-0094, 4-methyl-1-[6-(2-phenyl-1H-pyrrolo[2,3-b]pyridin-5-yl)pyridine-2-carbonyl]piperidine-4-carbonitrile] was tested, and the GI50 [1] was 0.0001 to 10 µM and the IC50 (c-KIT) was 50 to 100 µM.
Work on CC(C)(C)OC(=O)NC1CCN(C(=O)c2cccc(-c3cnc4[nH]c(-c5ccccc5)cc4c3)n2)CC1 [Compound P-0017, tert-butyl N-[1-[6-(2-phenyl-1H-pyrrolo[2,3-b]pyridin-5-yl)pyridine-2-carbonyl]-4-piperidyl]carbamate] yielded a GI50 [1] of 0.0001 to 10 µM and an IC50 (c-KIT) of 10 to 50 µM.
CN(C)CC#Cc1cc2cc(-c3cccc(S(=O)(=O)NC4CC4)c3)cnc2[nH]1 [Compound P-0009, N-cyclopropyl-3-[2-[3-(dimethylamino)prop-1-ynyl]-1H-pyrrolo[2,3-b]pyridin-5-yl]benzenesulfonamide] was tested, and the GI50 [1] was 0.0001 to 10 µM.
Compound CNC1CCN(C(=O)c2n[nH]c3ccc(-c4cnc5[nH]c(-c6ccccc6)cc5c4)cc23)C1 (centres unmarked) [Compound P-0028, [3-(methylamino)pyrrolidin-1-yl]-[5-(2-phenyl-1H-pyrrolo[2,3-b]pyridin-5-yl)-1H-indazol-3-yl]methanone] has a GI50 [1] of 0.0001 to 10 µM and an IC50 (c-KIT) of 0.0001 to 10 µM.
For O=C(c1cccc(-c2cnc3[nH]c(-c4ccccc4)cc3c2)n1)N1CCC(CO)CC1 [Compound P-0023, [4-(hydroxymethyl)-1-piperidyl]-[6-(2-phenyl-1H-pyrrolo[2,3-b]pyridin-5-yl)-2-pyridyl]methanone], the GI50 [1] was 0.0001 to 10 µM and the IC50 (c-KIT) was 50 to 100 µM.
Work on CNC1CCN(C(=O)c2cccc(-c3cnc4[nH]c(-c5ccc(F)cc5)cc4c3)n2)C1 (centres unmarked) [Compound P-0055, [6-[2-(4-fluorophenyl)-1H-pyrrolo[2,3-b]pyridin-5-yl]-2-pyridyl]-[3-(methylamino)pyrrolidin-1-yl]methanone] yielded a GI50 [1] of 0.0001 to 10 µM and an IC50 (c-KIT) of 0.0001 to 10 µM.
CNCC1CCN(C(=O)c2cccc(-c3cnc4[nH]c(-c5ccccc5)cc4c3)n2)C1 (centres unmarked) [Compound P-0079, [3-(methylaminomethyl)pyrrolidin-1-yl]-[6-(2-phenyl-1H-pyrrolo[2,3-b]pyridin-5-yl)-2-pyridyl]methanone] was tested, and the GI50 [1] was 0.0001 to 10 µM.
In the case of NC1(C(F)(F)F)CCN(C(=O)c2cccc(-c3cnc4[nH]c(-c5ccccc5)cc4c3)n2)C1 (centres unmarked) [Compound P-0077, [3-amino-3-(trifluoromethyl)pyrrolidin-1-yl]-[6-(2-phenyl-1H-pyrrolo[2,3-b]pyridin-5-yl)-2-pyridyl]methanone], the GI50 [1] is reported as 0.0001 to 10 µM.
Compound CC1(N)CCN(C(=O)c2cccc(-c3cnc4[nH]c(-c5ccccc5)cc4c3)n2)C1 (centres unmarked) [Compound P-0078, (3-amino-3-methyl-pyrrolidin-1-yl)-[6-(2-phenyl-1H-pyrrolo[2,3-b]pyridin-5-yl)-2-pyridyl]methanone] has a GI50 [1] of 0.0001 to 10 µM.
Compound O=S(=O)(NC1CC1)c1cccc(-c2cnc3[nH]c(C#CC4CCCCC4)cc3c2)c1 [Compound P-0010, 3-[2-(2-cyclohexylethynyl)-1H-pyrrolo[2,3-b]pyridin-5-yl]-N-cyclopropyl-benzenesulfonamide] has a GI50 [1] of 0.0001 to 10 µM.
Work on O=S(=O)(NC1CC1)c1cccc(-c2cnc3[nH]c(C#CCO)cc3c2)c1 [Compound P-0008, N-cyclopropyl-3-[2-(3-hydroxyprop-1-ynyl)-1H-pyrrolo[2,3-b]pyridin-5-yl]benzenesulfonamide] yielded a GI50 [1] of 0.0001 to 10 µM.
CC(C)(C#N)NC(=O)c1cccc(-c2cnc3[nH]c(-c4cnc(C(F)(F)F)nc4)cc3c2)n1 [Compound P-0204, N-(1-cyano-1-methyl-ethyl)-6-[2-[2-(trifluoromethyl)pyrimidin-5-yl]-1H-pyrrolo[2,3-b]pyridin-5-yl]pyridine-2-carboxamide] showed an IC50 (c-KIT) of 50 to 100 µM.
With CN1CC(NC(=O)c2cccc(-c3cnc4[nH]c(-c5ccccc5)cc4c3)n2)C1 [Compound P-0075, N-(1-methylazetidin-3-yl)-6-(2-phenyl-1H-pyrrolo[2,3-b]pyridin-5-yl)pyridine-2-carboxamide] the GI50 [1] was 0.0001 to 10 µM.
For CC(C)(C#N)NC(=O)c1cccc(-c2cnc3[nH]c(-c4ccc(F)nc4)cc3c2)n1 [Compound P-0208, N-(1-cyano-1-methyl-ethyl)-6-[2-(6-fluoro-3-pyridyl)-1H-pyrrolo[2,3-b]pyridin-5-yl]pyridine-2-carboxamide], the IC50 (c-KIT) was 50 to 100 µM.
For CC(C)(C#N)NC(=O)c1cccc(-c2cnc3[nH]c(-c4ccc(C(F)(F)F)nc4)cc3c2)n1 [Compound P-0201, N-(1-cyano-1-methyl-ethyl)-6-[2-[6-(trifluoromethyl)-3-pyridyl]-1H-pyrrolo[2,3-b]pyridin-5-yl]pyridine-2-carboxamide], the IC50 (c-KIT) was 50 to 100 µM.
O=S(=O)(NC1CC1)c1cccc(-c2cnc3[nH]c(C#Cc4ccccc4)cc3c2)c1 [Compound P-0014, N-cyclopropyl-3-[2-(2-phenylethynyl)-1H-pyrrolo[2,3-b]pyridin-5-yl]benzenesulfonamide] showed a GI50 [1] of 0.0001 to 10 µM.
Compound CC(C)(C)OC(=O)NC1CCN(C(=O)c2n[nH]c3ccc(-c4cnc5[nH]c(-c6ccccc6)cc5c4)cc23)CC1 [Compound P-0011, tert-butyl N-[1-[5-(2-phenyl-1H-pyrrolo[2,3-b]pyridin-5-yl)-1H-indazole-3-carbonyl]-4-piperidyl]carbamate] has a GI50 [1] of 0.0001 to 10 µM.
